Source: PubChem BioAssay (NCI)
Several values for one entry are separate records, joined by “and”; a condition that tells them apart may be missing. Identical values can stand only once.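 Where inhibition never reached the appropriate level, the endpoint shown equals the highest concentration tested. Otherwise, values were interpolated linearly from a five-concentration, 48-hour dose response in 96-well plates. The concentration for 50% growth inhibition is given as GI50. TGI marks complete inhibition of growth.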

Tests used:
Experiment in all cases: NCI tumour cell line growth inhibition, 48 h
[1] = test system: SN12C renal
[2] = test system: NCI-H23 lung
[3] = test system: HCT-116 colon
[4] = test system: HOP-62 NSCLC
[5] = test system: SN12K1 renal
[6] = test system: HS 578T breast
[7] = test system: PC-3 prostate
[8] = test system: HCC-2998 colon
[9] = test system: OVCAR-4 ovarian
[10] = test system: MOLT-4 leukemia
[11] = test system: SF-295 CNS
[12] = test system: SW-620 colon
[13] = test system: MDA-MB-435
[14] = test system: A498 renal
[15] = test system: T-47D breast
[16] = test system: CAKI-1 renal
[17] = test system: SF-268 CNS
[18] = test system: P388 leukemia
[19] = test system: LXFL 529 NSCLC

| SMILES | TGI [1] | GI50 [2] | TGI [2] | GI50 [3] | TGI [3] | GI50 [4] [µM] | TGI [4] | GI50 [6] [µM] | TGI [6] | GI50 [7] [µM] | TGI [7] | TGI [8] [µM] | TGI [9] | GI50 [10] | TGI [11] | TGI [12] | GI50 [13] [µM] | TGI [13] | GI50 [14] | TGI [14] | further results |
| --- | --- | --- | --- | --- | --- | --- | --- | --- | --- | --- | --- | --- | --- | --- | --- | --- | --- | --- | --- | --- | --- |
| CCN(CC)CCOc1cccc2nc3c(cc12)Cn1c-3cc2c(c1=O)COC(=O)C2(O)CC (configuration not stated) | 9.16 µM and > 41.5 µM | 0.506 µM and 0.87 µM | 4.19 µM and 4.86 µM | 0.403 µM and 1.29 µM | 10.9 µM and 14.2 µM | 0.356 | 2.63 µM | 83.9 | > 100 µM | 4.62 | > 100 µM | 21.8 | 25.9 µM and 29.1 µM | 0.103 µM | 5.19 µM and 9.4 µM | 29.7 µM and 36.6 µM | 12.2 | 28.2 µM | 2.13 µM and 3.91 µM | 6.74 µM and 18.2 µM | GI50 [1]: 0.266 µM and 0.747 µM; GI50 [5]: 1.03 µM and 1.18 µM; TGI [5]: 11.4 µM and 14.1 µM; GI50 [8]: 7.1 µM; GI50 [9]: 11.2 µM and 8.77 µM; GI50 [11]: 0.261 µM and 0.691 µM; GI50 [12]: 2.17 µM and 4.33 µM; GI50 [15]: 0.739 µM; TGI [15]: 7.25 µM; GI50 [16]: 0.889 µM; TGI [16]: 13.8 µM; GI50 [17]: 0.212 µM and 0.188 µM; TGI [17]: 11.7 µM |
| CCCCCCCCCCCC[C@@H](O)[C@H]1CC[C@H]([C@H](O)CCCC[C@H](O)CCCCC[C@@H](O)CC2=C[C@H](C)OC2=O)O1 | 7.66 µM and 15.6 µM | < 0.051 µM | 5.8 µM and 10.2 µM | 0.425 µM | 5.2 µM and 6.56 µM | 3.98 | 5.41 µM and 10.6 µM | 4.22 | 7.06 µM and 22.1 µM | 2.43 | 5.16 µM and 12.3 µM | 10.6 | 10.6 µM | 1.74 µM and 0.891 µM | 5.31 µM and 8.02 µM | 6.58 µM and 12.9 µM | 2.26 | 5.43 µM and 12 µM | 5.27 µM | 9.41 µM and 13.6 µM | TGI [10]: 4.06 µM; TGI [18]: 3.76 µM; GI50 [15]: 1.74 µM; TGI [15]: 14.1 µM; GI50 [16]: 5.39 µM; TGI [16]: 10.5 µM; GI50 [17]: 2.38 µM; TGI [17]: 6.01 µM and 11.2 µM; TGI [19]: 10.8 µM |
